Calls of active or inactive are those of the source. The rule behind the calls is not given here.

For experiment [1], the system named is Spermatozoa. Put plainly: Spermicidal activity against bovine spermatozoa at 800 ug/mL assessed as time required for sperm death. Format: functional, Bos taurus.
Experiment [2] relates to Spermatozoa. Put plainly: Spermicidal activity against horse sperm at 800 ug/mL assessed as time required for sperm death. Format: functional, Equus caballus.
The test system of experiment [3] is Spermatozoa. Nature of the experiment: Spermicidal activity against rat sperm at 200 ug/mL assessed as time required for sperm death. Format: functional.
For experiment [4], the system named is Spermatozoa. Put plainly: Spermicidal activity against boar sperm at 200 ug/mL assessed as time required for sperm death. Format: functional, Sus scrofa.
Experiment [5] deals with Spermatozoa. Nature of the experiment: Spermicidal activity against boar sperm at 50 ug/mL assessed as time required for sperm death. The note with it: Sus scrofa. Format: functional, cell-based.

With `C/C=C(\NC(=O)C(=O)CC)C(=O)N1CCC[C@H]1C(=O)N[C@@H](C)C(=O)N/C(=C\C)C(=O)N1CCC[C@H]1C(=O)N[C@@H](C)C(=O)N[C@H](C(=O)N[C@H](C)C(=O)N[C@H](C(=O)N[C@@H](CC(C)C)C(=O)N[C@H](C)C(=O)N[C@@H](C)C(=O)N[C@@H](Cc1ccc(O)cc1)C(=O)N[C@H](C(=O)N[C@@H]1CSC[C@@H](C(=O)N2CCC[C@H]2C(=O)N[C@H]2C(=O)N[C@@H]([C@@H](C)O)C(=O)N[C@@H](CCCCN)C(=O)N[C@H](C(=O)N[C@H]3C(=O)N[C@@H](CCCNC(=N)N)C(=O)N[C@@H](C)C(=O)N[C@H](C(=O)O)CSC3C)CSC2C)NC(=O)[C@H]([C@@H](C)O)NC(=O)[C@H](CC(N)=O)NC(=O)[C@H]([C@@H](C)O)NC1=O)[C@@H](C)CC)[C@@H](C)CC)[C@@H](C)CC` (stereo not given in full), the Time came out at 2.5 min in experiment [1], 4.8 min in experiment [2], 2 min in experiment [3] and 1.8 min in experiment [4].
On the same counts, the results for `C/C=C(\NC(=O)[C@H](CC(N)=O)NC(=O)/C(=C/C)NC(=O)[C@H]1CSC[C@H](N)C(=O)N1)C(=O)N[C@@H](Cc1ccccc1)C(=O)N[C@H](C)C(=O)N[C@@H](CC(C)C)C(=O)N[C@@H]1CSC[C@@H](C(=O)N[C@H]2C(=O)N[C@@H](CC(C)C)C(=O)N[C@H]3C(=O)N[C@@H](Cc4cnc[nH]4)C(=O)N[C@@H](CCC(=O)O)C(=O)N[C@@H](CS[C@H]2C)C(=O)N[C@@H](CCSC)C(=O)N[C@@H](C)C(=O)N[C@@H](Cc2c[nH]c4ccccc24)C(=O)N[C@H](C(=O)N[C@@H](CCCCN)C(=O)O)CS[C@H]3C)NC(=O)[C@H](Cc2c[nH]c3ccccc23)NC(=O)[C@H](C)NC(=O)CNC(=O)[C@H](CC(N)=O)NC(=O)[C@H](CC(N)=O)NC(=O)CNC(=O)[C@H](Cc2c[nH]c3ccccc23)NC(=O)[C@H](Cc2ccc(O)cc2)NC(=O)[C@H](CC(=O)O)NC1=O` are 16.6 min, 12.7 min, 2.3 min and 2.5 min.
For the molecule `C/C=C(\NC(=O)[C@H](CC(N)=O)NC(=O)/C(=C\C)NC(=O)[C@H](C)NC(=O)[C@H](C)N)C(=O)N[C@@H](Cc1ccccc1)C(=O)N[C@H](C)C(=O)N[C@@H](CC(C)C)C(=O)N[C@@H]1CSC[C@H](C(=O)N[C@H]2C(=O)N[C@@H](CC(C)C)C(=O)N[C@H]3C(=O)N[C@@H](Cc4cnc[nH]4)C(=O)N[C@@H](CCC(=O)O)C(=O)N[C@@H](CCS[C@H]2C)C(=O)N[C@@H](CCSC)C(=O)N[C@@H](C)C(=O)N[C@@H](Cc2c[nH]c4ccccc24)C(=O)N[C@H](C(=O)N[C@@H](CCCCN)C(=O)O)CSC3C)NC(=O)[C@H](Cc2c[nH]c3ccccc23)NC(=O)[C@H](C)NC(=O)CNC(=O)[C@H](CC(N)=O)NC(=O)[C@H](CC(N)=O)NC(=O)CNC(=O)[C@H](Cc2c[nH]c3ccccc23)NC(=O)[C@H](Cc2ccc(O)cc2)NC(=O)[C@H](CC(=O)O)NC1=O` (stereo not given in full), the result in experiment [5] was Active.
On the same count and under the same terms, in the case of `C/C=C(\NC(=O)C(=O)CC)C(=O)N1CCC[C@H]1C(=O)N[C@@H](C)C(=O)N/C(=C\C)C(=O)N1CCC[C@H]1C(=O)N[C@@H](C)C(=O)N[C@H](C(=O)N[C@H](C)C(=O)N[C@H](C(=O)N[C@@H](CC(C)C)C(=O)N[C@H](C)C(=O)N[C@@H](C)C(=O)N[C@@H](Cc1ccc(O)cc1)C(=O)N[C@H](C(=O)N[C@H]1CSC[C@H](C(=O)N2CCC[C@H]2C(=O)N[C@H]2C(=O)N[C@@H]([C@@H](C)O)C(=O)N[C@@H](CCCCN)C(=O)N[C@H](C(=O)N[C@H]3C(=O)N[C@@H](CCCNC(=N)N)C(=O)N[C@@H](C)C(=O)N[C@@H](C(=O)O)CSC3C)CSC2C)NC(=O)[C@H]([C@@H](C)O)NC(=O)[C@H](CC(N)=O)NC(=O)[C@H]([C@@H](C)O)NC1=O)[C@@H](C)CC)[C@@H](C)CC)[C@@H](C)CC` (stereo not given in full) it was “Active”.
